# Like-named read-outs stand apart in the source and are kept apart here. Marks after values point to notes of the source that are not given here.
# Key:
# [1] = tested on: Mycobacterium tuberculosis H37Rv (Mtb); conditions: cited from earlier work
# [2] = tested on: Mycobacterium tuberculosis H37Rv (Mtb); conditions: cited from earlier work; remark: listed apart in the source
# [3] = tested on: Mycobacterium tuberculosis H37Rv CNCTC My 331/88 (ATCC 27294); test: Antimycobacterial microdilution MABA, M. tuberculosis; format: cell-based; conditions: for MIC: Mycobacterium tuberculosis
# [4] = tested on: M. kansasii CNCTC My 235/80 (ATCC 12478); test: Antimycobacterial microdilution MABA, M. kansasii; format: cell-based, Mycobacterium kansasii; conditions: for MIC: Mycobacterium kansasii
# [5] = tested on: M. avium ssp. avium CNCTC My 80/72 (ATCC 15769); test: Antimycobacterial microdilution MABA, M. avium; format: cell-based, Mycobacterium avium; conditions: for MIC: Mycobacterium avium
# [6] = tested on: Mycobacterium smegmatis CCM 4622 (ATCC 607); test: Antimycobacterial microdilution, M. smegmatis; format: cell-based; conditions: Mycolicibacterium smegmatis, read-out: M. smeg. ATCC 607 MIC
# [7] = tested on: Staphylococcus aureus CCM 4516/08; test: Antibacterial microdilution broth, SA; format: cell-based; conditions: Staphylococcus aureus
# [8] = tested on: Staphylococcus aureus H 5996/08 methicillin resistant; test: microbe, parasite or virus in culture; format: cell-based; conditions: for MIC: Staphylococcus aureus, MRSA, read-out: MIC MRSA
# [9] = tested on: Staphylococcus epidermidis H 6966/08; test: Antibacterial microdilution broth, SE; format: cell-based; conditions: read-out: MIC SE
# [10] = tested on: Enterococcus sp. J 14365/08; test: Antibacterial microdilution broth, EF; format: cell-based; conditions: Enterococcus, read-out: MIC EF
# [11] = tested on: Escherichia coli CCM 4517; test: Antibacterial microdilution broth, EC; format: cell-based; conditions: Escherichia coli, read-out: MIC EC
# [12] = tested on: Pseudomonas aeruginosa CCM 1961; test: Antibacterial microdilution broth, PA; format: cell-based; conditions: Pseudomonas aeruginosa, read-out: MIC PA
# [13] = tested on: Candida albicans ATCC 44859; test: Antifungal microdilution broth, CA; format: cell-based; conditions: Candida albicans, read-out: MIC CA
# Candida tropicalis 156 = test: Antifungal microdilution broth, CT; format: cell-based; conditions: read-out: MIC CT
# Candida krusei E28 = test: Antifungal microdilution broth, CK; format: cell-based; conditions: Pichia kudriavzevii, read-out: MIC CK
# Candida glabrata 20/I = test: Antifungal microdilution broth, CG; format: cell-based; conditions: Nakaseomyces glabratus, 20/I, read-out: MIC CG
# Trichosporon asahii 1188 = test: Antifungal microdilution broth, TA; format: cell-based; conditions: read-out: MIC TA
# [14] = tested on: Aspergillus fumigatus 231; test: Antifungal microdilution broth, AF; format: cell-based; conditions: read-out: MIC AF
# [15] = tested on: Lichtheimia corymbifera 272; test: Antifungal microdilution broth, LC; format: cell-based; conditions: read-out: MIC LC
# [16] = tested on: Trichophyton interdigitale 445; test: Antifungal microdilution broth, TI; format: cell-based; conditions: read-out: MIC TI
# [17] = human, HepG2 cells
# [18] = Middlebrook 7H9, pH = 6.6, MABA
# [19] = Middlebrook 7H9 with OADC growth supplement, pH = 6.6, MABA
# [20] = read-out: Mtb H37Rv ATCC 27294 MIC, Middlebrook 7H9 with OADC growth supplement, pH = 6.6, MABA
# [21] = Middlebrook 7H9 with OADC, pH 6.6, MABA
# [22] = ATCC12478, pH 6.6, read-out: M. kans. ATCC 12478 MIC, Middlebrook 7H9 with OADC, pH 6.6, MABA
# [23] = ATCC15769, pH 6.6, read-out: M. avium ATCC 15769 MIC
# [24] = CCM4516, 24 h, read-out: MIC SA, 24 h
# [25] = CCM4516, 48 h, read-out: MIC SA, 48 h
# [26] = Staphylococcus epidermidis, H6966/08, 24 h
# [27] = Staphylococcus epidermidis, H6966/08, 48 h
# [28] = Trichosporon asahii, 1188, 24 h
# [29] = Trichosporon asahii, 1188, 48 h
# [30] = Aspergillus fumigatus, 231, 24 h
# [31] = Aspergillus fumigatus, 231, 48 h
# [32] = Lichtheimia corymbifera, 272, 24 h
# [33] = Lichtheimia corymbifera, 272, 48 h
# [34] = Trichophyton interdigitale, 445, 72 h
# [35] = Trichophyton interdigitale, 445, 120 h
compound,measurement,setting,value
O=C(Nc1ccccc1)c1cncc(Cl)n1 [Amide R1=6-Cl R2=H],Amides MIC,"[1]; Šula's semisynthetic medium, pH = 5.6, MABA",25 ^d [34] μg/mL
same,Amides Inhibition (%) at 6.25 μg/mL (TAACF),[2],32 [31] %
O=C(Nc1ccccc1Cl)c1cnccn1 [Amide R1=H R2=2-Cl],Amides MIC,"[1]; Šula's semisynthetic medium, pH = 5.6, growth indicated by turbidity",50 ^c [19] μg/mL
COc1ccccc1NC(=O)c1cnccn1 [Amide R1=H R2=2-OCH3],Amides MIC,[1]; [18],>100 ^b [27] μg/mL
O=C(Nc1cccc(C(F)(F)F)c1)c1cnccn1 [Amide R1=H R2=3-CF3],Amides MIC,[1]; [18],50 µg/mL
same,Amides MIC,[1]; conditions not footnoted,6.25 µg/mL
same,Amides Inhibition (%) at 6.25 μg/mL (TAACF),[2],99 [32] %
O=C(Nc1cccc(Cl)c1)c1cnccn1 [Amide R1=H R2=3-Cl],Amides MIC,[1]; [18],>100 ^b [27] μg/mL
same,Amides Inhibition (%) at 6.25 μg/mL (TAACF),[2],14 [33] %
COc1cccc(NC(=O)c2cnccn2)c1 [Amide R1=H R2=3-OCH3],Amides MIC,[1]; [18],>100 ^b [27] μg/mL
Cc1ccc(NC(=O)c2cnccn2)cc1 [Amide R1=H R2=4-CH3],Amides MIC,[1]; [18],100 ^b [27] μg/mL
same,Amides Inhibition (%) at 6.25 μg/mL (TAACF),[2],86 [32] %
O=C(Nc1ccc(Cl)cc1)c1cnccn1 [Amide R1=H R2=4-Cl],Amides MIC,[1]; [18],50 ^b [27] μg/mL
same,Amides Inhibition (%) at 6.25 μg/mL (TAACF),[2],4 [33] %
COc1ccc(NC(=O)c2cnccn2)cc1 [Amide R1=H R2=4-OCH3],Amides MIC,[1]; [18],>100 ^b [27] μg/mL
O=C(Nc1ccccc1)c1cnccn1 [Amide R1=H R2=H],Amides MIC,[1]; [18],>100 ^b [27] μg/mL
same,Amides Inhibition (%) at 6.25 μg/mL (TAACF),[2],0 [31] %
CC(=O)Oc1ccc(C(=O)Nc2cnc(Cl)cn2)cc1 [Compound 2d-Ac],Mtb H37Rv ATCC 27294 MIC,[3]; [19],>100 µg/mL
same,MIC,[3]; [20],> 100 µg/mL
same,Mtb MIC,[3]; molar concentration,inactive
same,M. kans. ATCC 12478 MIC,[4]; [21],>100 µg/mL
same,MIC,[4]; [22],> 100 µg/mL
same,M. avium ATCC 15769 MIC,[5]; [21],>100 µg/mL
same,MIC,[5]; [23],> 100 µg/mL
same,MIC,[6],250 µg/mL
same,MIC,[7]; [24],0.98 µM
same,MIC,[7]; [25],0.98 µM
same,MIC MRSA,[8]; 24 h,>125 µM
same,MIC MRSA,[8]; 48 h,>125 µM
same,MIC,[8]; 24 h,> 125 µM
same,MIC,[8]; 48 h,> 125 µM
same,MIC,[9]; 24 h,>125 µM
same,MIC,[9]; 48 h,>125 µM
same,MIC,[9]; [26],> 125 µM
same,MIC,[9]; [27],> 125 µM
same,MIC,"[10]; SP.J14365/08, 24 h",> 125 µM
same,MIC,"[10]; SP.J14365/08, 48 h",> 125 µM
same,MIC,"[11]; CCM4517, 24 h",> 125 µM
same,MIC,"[11]; CCM4517, 48 h",> 125 µM
same,MIC,"[12]; CCM1961, 72 h",> 125 µM
same,MIC,"[12]; CCM1961, 120 h",> 125 µM
same,MIC,"[13]; ATCC44859, 24 h",> 125 µM
same,MIC,"[13]; ATCC44859, 48 h",> 125 µM
same,MIC,"Candida tropicalis 156; Candida tropicalis, 156, 24 h",> 125 µM
same,MIC,"Candida tropicalis 156; Candida tropicalis, 156, 48 h",> 125 µM
same,MIC,"Candida krusei E28; E28, 24 h",> 125 µM
same,MIC,"Candida krusei E28; E28, 48 h",> 125 µM
same,MIC,Candida glabrata 20/I; 24 h,> 125 µM
same,MIC,Candida glabrata 20/I; 48 h,> 125 µM
same,MIC,Trichosporon asahii 1188; [28],> 125 µM
same,MIC,Trichosporon asahii 1188; [29],> 125 µM
same,MIC,[14]; [30],> 125 µM
same,MIC,[14]; [31],> 125 µM
same,MIC,[15]; [32],> 125 µM
same,MIC,[15]; [33],> 125 µM
same,MIC,[16]; [34],> 125 µM
same,MIC,[16]; [35],> 125 µM
same,melting point,,170.9 to 171.8 °C
same,IC50 at 24 h,[17],> 500 µM
O=C(Nc1cncc(Cl)n1)c1cccc(Cl)c1 [Compound 3k],Mtb H37Rv ATCC 27294 MIC,[3]; [19],>100 µg/mL
same,MIC,[3]; [20],> 100 µg/mL
same,MIC,[4]; [22],> 100 µg/mL
same,MIC,[5]; [23],> 100 µg/mL
same,MIC,[6],≥ 500 µg/mL
same,MIC,[7]; [24],> 125 µM
same,MIC,[7]; [25],> 125 µM
same,MIC,[8]; 24 h,> 125 µM
same,MIC,[8]; 48 h,> 125 µM
same,MIC,[9]; [26],> 125 µM
same,MIC,[9]; [27],> 125 µM
same,MIC,"[10]; SP.J14365/08, 24 h",> 125 µM
same,MIC,"[10]; SP.J14365/08, 48 h",> 125 µM
same,MIC,"[11]; CCM4517, 24 h",> 125 µM
same,MIC,"[11]; CCM4517, 48 h",> 125 µM
same,MIC,"[12]; CCM1961, 72 h",> 125 µM
same,MIC,"[12]; CCM1961, 120 h",> 125 µM
same,MIC,"[13]; ATCC44859, 24 h",> 125 µM
same,MIC,"[13]; ATCC44859, 48 h",> 125 µM
same,MIC,"Candida tropicalis 156; Candida tropicalis, 156, 24 h",> 125 µM
same,MIC,"Candida tropicalis 156; Candida tropicalis, 156, 48 h",> 125 µM
same,MIC,"Candida krusei E28; E28, 24 h",> 125 µM
same,MIC,"Candida krusei E28; E28, 48 h",> 125 µM
same,MIC,Candida glabrata 20/I; 24 h,> 125 µM
same,MIC,Candida glabrata 20/I; 48 h,> 125 µM
same,MIC,Trichosporon asahii 1188; [28],> 125 µM
same,MIC,Trichosporon asahii 1188; [29],> 125 µM
same,MIC,[14]; [30],> 125 µM
same,MIC,[14]; [31],> 125 µM
same,MIC,[15]; [32],> 125 µM
same,MIC,[15]; [33],> 125 µM
same,MIC,[16]; [34],> 125 µM
same,MIC,[16]; [35],> 125 µM
same,melting point,,166 to 167.1 °C
"O=C(Nc1cncc(Cl)n1)c1cccc(C(F)(F)F)c1 [Compound 3n, N-(6-chloropyrazin-2-yl)-3-(trifluoromethyl)benzamide]",MIC,"[3]; Middlebrook 7H9 with OADC growth supplement, pH = 6.6, MABA, read-out: Mtb H37Rv ATCC 27294 MIC",25 µg/mL
same,MIC,"[3]; molar concentration, read-out: Mtb MIC",82.9 µM
same,MIC,"[4]; ATCC12478, Middlebrook 7H9 with OADC, pH 6.6, MABA, read-out: M. kans. ATCC 12478 MIC",25 µg/mL
same,MIC,"[5]; ATCC15769, Middlebrook 7H9 with OADC, pH 6.6, MABA, read-out: M. avium ATCC 15769 MIC",50 µg/mL
same,MIC,"[6]; Middlebrook 7H9 with OADC, resazurin",125 µg/mL
same,melting point,,124.2 to 125 °C
same,IC50 at 24 h,[17],> 250 µM

# From publication PMC6225228, “Design, Synthesis and Evaluation of N-pyrazinylbenzamides as Potential Antimycobacterial Agents” (Molecules : A Journal of Synthetic Chemistry and Natural …, 2018)
